ChEMBL document CHEMBL3244212, “Relationship of molecular structure to in vivo scintigraphic distribution of carbon-11-labeled compounds. 4. Carbon-11-labeled mandelonitriles, Mandelic acids, and their esters” (J Med Chem, 1978)
Values belong to the compound of their own block, whether it stands above or below them.

Assays:
Assay type in all cases: ADME, organism-based, Canis lupus familiaris; call rule not given here
[1] = tested on: Canis familiaris; assay: Biodistribution in iv dosed dog left lateral whole body measured after 4 mins by scintigraphic analysis; settings: in vivo
[2] = Biodistribution in iv dosed dog left lateral thorax measured after 27 mins by scintigraphic analysis; settings: in vivo, 0.45 h
[3] = Biodistribution in iv dosed dog ventral abdomen measured after 30 mins by scintigraphic analysis; settings: in vivo, 0.5 h
[4] = Biodistribution in iv dosed dog left lateral head/neck measured after 35 mins by scintigraphic analysis; settings: in vivo
[5] = Biodistribution in iv dosed dog blood measured after 3 mins by scintigraphic analysis; settings: in vivo, 0.05 h
[6] = Biodistribution in iv dosed dog left lateral heart measured after 18 to 80 mins by scintigraphic analysis; settings: in vivo
[7] = tested on: Liver; assay: Biodistribution in iv dosed dog left lateral liver measured after 18 to 80 mins by scintigraphic analysis; settings: in vivo
[8] = Biodistribution in iv dosed dog urinary bladder measured after 21 to 51 mins by scintigraphic analysis; settings: in vivo
[9] = tested on: Nucleic Acid; assay: Ratio of drug level in temporal muscle to brain in iv dosed dog measured after 34 mins; settings: in vivo
[10] = tested on: Nucleic Acid; assay: Ratio of drug level in temporal muscle to lung in iv dosed dog measured after 34 mins; settings: in vivo
[11] = tested on: Nucleic Acid; assay: Ratio of drug level in temporal muscle to heart in iv dosed dog measured after 34 mins; settings: in vivo
[12] = tested on: Nucleic Acid; assay: Ratio of drug level in temporal muscle to liver in iv dosed dog measured after 34 mins; settings: in vivo
[13] = Ratio of drug level in temporal muscle to bile in iv dosed dog measured after 34 mins; settings: in vivo
[14] = tested on: Nucleic Acid; assay: Ratio of drug level in temporal muscle to spleen in iv dosed dog measured after 34 mins; settings: in vivo
[15] = tested on: Nucleic Acid; assay: Ratio of drug level in temporal muscle to stomach in iv dosed dog measured after 34 mins; settings: in vivo
[16] = tested on: Nucleic Acid; assay: Ratio of drug level in temporal muscle to pancreas in iv dosed dog measured after 34 mins; settings: in vivo
[17] = tested on: Nucleic Acid; assay: Ratio of drug level in temporal muscle to kidney in iv dosed dog measured after 34 mins; settings: in vivo
[18] = Ratio of drug level in temporal muscle to blood in iv dosed dog measured after 34 mins
[19] = Ratio of drug level in temporal muscle to urine in iv dosed dog measured after 34 mins; settings: in vivo
[20] = tested on: Nucleic Acid; assay: Ratio of drug level in temporal muscle to cerebrospinal fluid in iv dosed dog measured after 34 mins; settings: in vivo
[21] = tested on: Nucleic Acid; assay: Ratio of drug level in temporal muscle to brain in iv dosed dog measured after 40 mins; settings: in vivo
[22] = tested on: Nucleic Acid; assay: Ratio of drug level in temporal muscle to lung in iv dosed dog measured after 40 mins; settings: in vivo
[23] = tested on: Nucleic Acid; assay: Ratio of drug level in temporal muscle to heart in iv dosed dog measured after 40 mins; settings: in vivo
[24] = tested on: Nucleic Acid; assay: Ratio of drug level in temporal muscle to liver in iv dosed dog measured after 40 mins; settings: in vivo
[25] = Ratio of drug level in temporal muscle to bile in iv dosed dog measured after 40 mins; settings: in vivo
[26] = tested on: Nucleic Acid; assay: Ratio of drug level in temporal muscle to spleen in iv dosed dog measured after 40 mins; settings: in vivo
[27] = tested on: Nucleic Acid; assay: Ratio of drug level in temporal muscle to pancreas in iv dosed dog measured after 40 mins; settings: in vivo
[28] = tested on: Nucleic Acid; assay: Ratio of drug level in temporal muscle to kidney in iv dosed dog measured after 40 mins; settings: in vivo
[29] = tested on: Nucleic Acid; assay: Ratio of drug level in temporal muscle to mesenteric nodes in iv dosed dog measured after 40 mins; settings: in vivo
[30] = tested on: Nucleic Acid; assay: Ratio of drug level in temporal muscle to mesenteric fat in iv dosed dog measured after 40 mins; settings: in vivo
[31] = Ratio of drug level in temporal muscle to urine in iv dosed dog measured after 40 mins; settings: in vivo
[32] = tested on: Nucleic Acid; assay: Ratio of drug level in temporal muscle to adrenal in iv dosed dog measured after 40 mins; settings: in vivo
[33] = tested on: Nucleic Acid; assay: Ratio of drug level in temporal muscle to stomach in iv dosed dog measured after 40 mins; settings: in vivo
[34] = tested on: Canis familiaris; assay: Biodistribution in iv dosed dog lung after 3 mins by scintigraphic analysis; settings: in vivo, 0.05 h

- Drug uptake [1]: Active
- Drug uptake [2]: Active
- Drug uptake [3]: Active
- Drug uptake [4]: Active
Structure (SMILES): N#[11C]C(O)c1ccc(O)c(O)c1 (configuration not stated)

Structure (SMILES): COc1ccc(C(O)[11C]#N)cc1 (configuration not stated)
- Drug uptake [5]: Active
- Drug uptake [6]: Active
- Drug uptake [7]: Active

- Drug uptake [1]: Active
- Drug uptake [8]: Active
Structure (SMILES): Cc1cccc(C(O)[11C](=O)O)c1 (configuration not stated)

Structure (SMILES): O=[11C](O)C(O)c1ccc(Cl)cc1 (configuration not stated)
- Drug uptake [1]: Active
- Drug uptake [8]: Active

- Drug uptake [1]: Active
- Drug uptake [8]: Active
- Ratio [9]: 0.23
- Ratio [10]: 1.08
- Ratio [11]: 1.15
- Ratio [12]: 1.38
- Ratio [13]: 1.23
- Ratio [14]: 1.08
- Ratio [15]: 1.35
- Ratio [16]: 4.54
- Ratio [17]: 4.46
- Kp at 34 min [18]: 13.8
- Ratio [19]: 36.77
- Ratio [20]: 2
- Ratio [21]: 0.16
- Ratio [22]: 1.6
- Ratio [23]: 1.06
- Ratio [24]: 1.79
- Ratio [25]: 0.85
- Ratio [26]: 1.46
- Ratio [27]: 1.18
- Ratio [28]: 6.26
- Ratio [29]: 2.28
- Ratio [30]: 0.47
- Ratio [31]: 295
- Ratio [32]: 3.73
- Ratio [33]: 1.17
Structure (SMILES): O=[11C](O)C(O)c1ccccc1Cl (configuration not stated)

- Drug uptake [1]: Active
- Drug uptake [8]: Active
Structure (SMILES): O=[11C](O)C(O)c1ccccc1 (configuration not stated)

- Drug uptake [34]: Active
Structure (SMILES): CCO[11C](=O)C(O)c1ccccc1 (configuration not stated)

- Drug uptake [34]: Active
Structure (SMILES): O=[11C](OCc1ccccc1)C(O)c1ccccc1 (configuration not stated)
